Reference: the NIST ThermoML archive (doi:10.1016/j.tca.2018.11.018)
± gives the expanded uncertainty stated by the source.

Test: xn = mol fraction of the nth substance listed
Settings: 100 kPa, Liquid; for mass density: Vibrating tube method; for viscosity: Falling or rolling sphere viscometry

CC[N+]1(C)CCCCC1.[Br-] [N-ethyl-N-methylpiperidinium bromide] + O
Settings	mass density [kg/m3]	viscosity [mPa·s]
323.15 K, x1 = 0.02	1031.6 ± 1	–
323.15 K, x1 = 0.046	1075.9 ± 1	–
323.15 K, x1 = 0.065	1102.9 ± 1	–
323.15 K, x1 = 0.085	1126.3 ± 1	–
323.15 K, x1 = 0.11	1151.5 ± 1	–
323.15 K, x1 = 0.14	1175.5 ± 1.1	–
323.15 K, x1 = 0.18	1200.6 ± 1.1	–
323.15 K, x1 = 0.221	1220.4 ± 1.2	–
323.15 K, x1 = 0.27	1237.9 ± 1.3	–
323.15 K, x1 = 0.321	1251.8 ± 1.4	–
328.15 K, x1 = 0.02	1029 ± 1	0.709 ± 0.043
328.15 K, x1 = 0.046	1073 ± 1	1.063 ± 0.064
328.15 K, x1 = 0.065	1099.9 ± 1	1.378 ± 0.083
328.15 K, x1 = 0.085	1123.1 ± 1	1.83 ± 0.11
328.15 K, x1 = 0.11	1148.1 ± 1	2.563 ± 0.15
328.15 K, x1 = 0.14	1172.1 ± 1.1	4.087 ± 0.25
328.15 K, x1 = 0.18	1197 ± 1.1	6.616 ± 0.4
328.15 K, x1 = 0.221	1216.9 ± 1.2	10.15 ± 0.62
328.15 K, x1 = 0.27	1234.4 ± 1.3	16.44 ± 1
328.15 K, x1 = 0.321	1248.3 ± 1.4	26.76 ± 1.6
333.15 K, x1 = 0.02	1026.3 ± 1	0.656 ± 0.04
333.15 K, x1 = 0.046	1070.2 ± 1	0.976 ± 0.059
333.15 K, x1 = 0.065	1096.7 ± 1	1.249 ± 0.076
333.15 K, x1 = 0.085	1119.9 ± 1	1.65 ± 0.1
333.15 K, x1 = 0.11	1144.7 ± 1	2.285 ± 0.14
333.15 K, x1 = 0.14	1168.6 ± 1.1	3.555 ± 0.21
333.15 K, x1 = 0.18	1193.5 ± 1.1	5.691 ± 0.34
333.15 K, x1 = 0.221	1213.4 ± 1.2	8.658 ± 0.53
333.15 K, x1 = 0.27	1230.9 ± 1.3	13.81 ± 0.84
333.15 K, x1 = 0.321	1244.9 ± 1.4	21.95 ± 1.3
338.15 K, x1 = 0.02	1023.5 ± 1	0.616 ± 0.037
338.15 K, x1 = 0.046	1067.1 ± 1	0.9 ± 0.054
338.15 K, x1 = 0.065	1093.5 ± 1	1.142 ± 0.069
338.15 K, x1 = 0.085	1116.9 ± 1	1.495 ± 0.09
338.15 K, x1 = 0.11	1141.4 ± 1	2.046 ± 0.12
338.15 K, x1 = 0.14	1165.1 ± 1.1	3.13 ± 0.19
338.15 K, x1 = 0.18	1189.9 ± 1.1	4.925 ± 0.3
338.15 K, x1 = 0.221	1209.8 ± 1.2	7.418 ± 0.45
338.15 K, x1 = 0.27	1227.4 ± 1.3	11.66 ± 0.71
338.15 K, x1 = 0.321	1241.4 ± 1.4	18.17 ± 1.1
343.15 K, x1 = 0.02	1020.4 ± 1	0.579 ± 0.035
343.15 K, x1 = 0.046	1063.9 ± 1	0.835 ± 0.05
343.15 K, x1 = 0.065	1090.3 ± 1	1.05 ± 0.064
343.15 K, x1 = 0.085	1113.8 ± 1	1.363 ± 0.082
343.15 K, x1 = 0.11	1137.9 ± 1	1.845 ± 0.11
343.15 K, x1 = 0.14	1161.5 ± 1.1	2.616 ± 0.16
343.15 K, x1 = 0.18	1186.3 ± 1.1	4.343 ± 0.26
343.15 K, x1 = 0.221	1206.2 ± 1.2	6.433 ± 0.39
343.15 K, x1 = 0.27	1223.9 ± 1.3	10.03 ± 0.61
343.15 K, x1 = 0.321	1238 ± 1.4	15.35 ± 0.94
348.15 K, x1 = 0.02	1016.6 ± 1	0.548 ± 0.033
348.15 K, x1 = 0.046	1060.6 ± 1	0.778 ± 0.047
348.15 K, x1 = 0.065	1087 ± 1	0.967 ± 0.058
348.15 K, x1 = 0.085	1110.3 ± 1	1.247 ± 0.075
348.15 K, x1 = 0.11	1134.3 ± 1	1.67 ± 0.1
348.15 K, x1 = 0.14	1157.9 ± 1.1	2.352 ± 0.14
348.15 K, x1 = 0.18	1182.7 ± 1.1	3.798 ± 0.23
348.15 K, x1 = 0.221	1202.6 ± 1.2	5.613 ± 0.34
348.15 K, x1 = 0.27	1220.3 ± 1.3	8.668 ± 0.53
348.15 K, x1 = 0.321	1234.5 ± 1.4	13.11 ± 0.8
